ChEMBL document CHEMBL5233254, “Anticancer fungal natural products: Mechanisms of action and biosynthesis” (Eur J Med Chem, 2020)
≈ marks a conversion by molar mass, not a printed value. One block for each compound: values may come before it.

Tests used:
[1] = Cytotoxicity against human endothelial cells; type: toxicity, cell-based; settings: endothelial cell
MCF7 = test: Cytotoxicity against human MCF7 cells; type: functional, cell-based
[2] = target: T1, Heat shock factor protein 1 (Homo sapiens, UniProt Q00613); test: Induction of HSF-1 (unknown origin) degradation assessed as ATPase activity by colorimetric assay
T1 sequence (Q00613 whole entry): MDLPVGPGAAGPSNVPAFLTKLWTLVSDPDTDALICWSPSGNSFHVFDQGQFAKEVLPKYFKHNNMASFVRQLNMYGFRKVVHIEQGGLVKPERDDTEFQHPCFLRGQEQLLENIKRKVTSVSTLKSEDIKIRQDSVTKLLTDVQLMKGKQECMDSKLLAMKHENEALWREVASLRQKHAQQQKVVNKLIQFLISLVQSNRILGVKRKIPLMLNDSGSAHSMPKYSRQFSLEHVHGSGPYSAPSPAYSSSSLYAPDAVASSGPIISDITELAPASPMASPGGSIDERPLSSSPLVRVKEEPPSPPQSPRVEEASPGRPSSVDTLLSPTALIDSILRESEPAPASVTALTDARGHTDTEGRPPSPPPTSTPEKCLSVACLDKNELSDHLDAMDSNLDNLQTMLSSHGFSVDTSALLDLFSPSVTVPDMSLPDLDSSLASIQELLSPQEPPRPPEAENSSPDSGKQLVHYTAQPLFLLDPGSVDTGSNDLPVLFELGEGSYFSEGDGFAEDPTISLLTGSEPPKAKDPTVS

[3] = Anti-tumor activity against mouse lewis lung carcinoma cells allografted in mouse assessed as reduction in tumor growth at 2 mg/kg, po; type: functional; design: scale not given: the % may be the effect or the level left
14-3-3 eta/c-RAF = 14-3-3 eta/c-RAF (Homo sapiens, UniProt P04049+Q04917); test: Stabilization of 14-3-3 eta (unknown origin)/ c-Raf (unknown origin); type: protein-complex assay
[4] = Inhibition of V-ATPase (unknown origin); design: species or system Homo sapiens
[5] = Inhibition of full-length human MEK
[6] = Inhibition of PI3K (unknown origin); design: species or system Homo sapiens
Tubulin = test: Binding affinity to tubulin (unknown origin) assessed as dissociation constant; type: protein-complex assay, Homo sapiens
HeLa = test: Antimitotic activity against human HeLa cells; type: functional, cell-based
Tubulin (Homo sapiens) = Tubulin (Homo sapiens) (UniProt P68371+Q9H4B7+P0DPH7+P68366+Q13509+Q71U36+P04350+Q3ZCM7+P07437+P68363+Q9BQE3+Q6PEY2+Q13885+Q9BVA1+Q9BUF5); test: Inhibition of microtubule polymerization in human HeLa cells at 20 uM relative to control; type: cell-based

Sequence of 14-3-3 eta/c-RAF (P04049 whole entry): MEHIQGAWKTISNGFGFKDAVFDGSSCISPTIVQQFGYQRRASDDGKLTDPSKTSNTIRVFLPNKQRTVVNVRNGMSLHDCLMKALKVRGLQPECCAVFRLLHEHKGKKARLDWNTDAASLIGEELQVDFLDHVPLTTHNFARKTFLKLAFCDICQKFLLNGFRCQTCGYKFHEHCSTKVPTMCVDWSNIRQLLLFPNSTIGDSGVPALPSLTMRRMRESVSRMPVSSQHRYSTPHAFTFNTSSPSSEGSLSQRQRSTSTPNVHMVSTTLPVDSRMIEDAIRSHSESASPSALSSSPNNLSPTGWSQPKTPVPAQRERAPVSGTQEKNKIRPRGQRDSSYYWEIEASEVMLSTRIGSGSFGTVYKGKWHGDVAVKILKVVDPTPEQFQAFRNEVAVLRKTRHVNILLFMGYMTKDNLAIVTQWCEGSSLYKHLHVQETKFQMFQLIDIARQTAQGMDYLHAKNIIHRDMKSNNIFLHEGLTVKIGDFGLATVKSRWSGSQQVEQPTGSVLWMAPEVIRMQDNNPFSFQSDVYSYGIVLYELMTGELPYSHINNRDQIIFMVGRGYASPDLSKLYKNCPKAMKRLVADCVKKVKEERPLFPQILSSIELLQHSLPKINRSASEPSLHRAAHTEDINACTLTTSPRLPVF
Sequence of 14-3-3 eta/c-RAF (Q04917 whole entry): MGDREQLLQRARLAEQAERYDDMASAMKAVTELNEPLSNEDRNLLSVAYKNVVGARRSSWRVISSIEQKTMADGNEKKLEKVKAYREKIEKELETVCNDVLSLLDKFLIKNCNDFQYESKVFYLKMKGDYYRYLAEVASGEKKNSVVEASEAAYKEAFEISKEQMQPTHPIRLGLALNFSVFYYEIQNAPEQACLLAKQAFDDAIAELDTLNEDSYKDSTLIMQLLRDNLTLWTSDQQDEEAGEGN

Structure (SMILES): CO[C@@H]1[C@H](OC(=O)NC(=O)CCl)CC[C@]2(CO2)[C@H]1[C@@]1(C)O[C@@H]1CC=C(C)C [O-CHLOROACETYLCARBAMOYLFUMAGILLOL]
IC50 [1]: 0.01 ng/mL (≈ 0.0249 nM)

Structure (SMILES): C[C@]12CCC3=C(C(=O)c4occ5c4[C@]3(C)CCC5=O)[C@@H]1CC[C@@H]2O
IC50 (MCF7): 15 µM

IC50 [2]: 15.3 µM
Structure (SMILES): C[C@H]1CCC/C=C/C(=O)c2c(O)cc(O)cc2CC(=O)O1 [DEHYDROCURVULARIN]

Structure (SMILES): C[C@H]1C/C=C/[C@H]2[C@@H]3O[C@]3(C)[C@@H](C)[C@H]3[C@H](Cc4ccccc4)NC(=O)[C@]32OC(=O)O/C=C/[C@@](C)(O)C1=O [CYTOCHALASIN E]
Activity [3]: 72%

Structure (SMILES): COC[C@H]1O[C@@H](O[C@@H]2C3=C(C(C)C)CC[C@]3(C)/C=C3\[C@@H](CC[C@]3(O)COC)[C@@H](C)[C@H]2O)[C@H](O)[C@H]2OC3O[C@]21O[C@@]3(C)[C@@H]1CO1
EC50 (14-3-3 eta/c-RAF): 60 µM

Structure (SMILES): CC[C@@H](C)[C@@H]1NC(=O)[C@H]2CCCN2C(=O)[C@@H](CC(C)C)OC(=O)CCNC(=O)[C@H](C)N(C)C(=O)[C@H](C(C)C)N(C)C1=O
IC50 [4]: 5.4 µM

Structure (SMILES): COc1cc(O)c2c(c1)CCC[C@H](O)[C@H](O)C(=O)/C=C\C[C@H](C)OC2=O
IC50 [5]: 4 µM

Structure (SMILES): C[C@@]12c3ccc4c(c3C(=O)c3occ(c31)C(=O)C[C@H]2O)CCC4=O [DEMETHOXYVIRIDIN]
IC50 [6]: 0.0066 µM

Kd (Tubulin): 300 µM
IC50 (HeLa): 25 µM
inhibition (Tubulin (Homo sapiens)): 75%
Structure (SMILES): COC1=CC(=O)C[C@@H](C)[C@]12Oc1c(Cl)c(OC)cc(OC)c1C2=O [GRISEOFULVIN]
